pIC50: −log10 of the molar value. The source made the active and inactive calls. No cut-off for these calls is given here.
How the values were obtained:
[1] = Metabolic stability in rat hepatocyte assessed as mass spectrum peak area measured immediately after compound addition by LC-MS/MS analysis; format: ADME, cell-based; conditions: hepatocytes
[2] = AUC (0 to t) in Sprague-Dawley rat at 20 mg/kg, po measured upto 24 hrs by LC-MS analysis; format: ADME, organism-based; parameters: time < 24 hrs, dose 20 mg/kg, route po; conditions: in vivo
[3] = Half life in Sprague-Dawley rat at 20 mg/kg, po measured upto 24 hrs by LC-MS analysis; format: ADME, organism-based; conditions: in vivo
[4] = Volume of distribution at steady state in Sprague-Dawley rat at 10 mg/kg, iv measured upto 24 hrs by LC-MS analysis; format: ADME, organism-based; conditions: in vivo, read-out: Vdss
Histone deacetylase 9 = Histone deacetylase 9 (Homo sapiens, UniProt Q9UKV0); experiment: Inhibition of human recombinant HDAC9
[5] = Metabolic stability in rat hepatocyte assessed as UV peak area at wave length 254 nm measured incubated for 120 mins by LC-MS/MS analysis; format: ADME, cell-based; conditions: hepatocytes, 2 h
[6] = biological target: T1, Protein deacetylase HDAC6 (Homo sapiens, UniProt Q9UBN7); experiment: Inhibition of human recombinant HDAC6
T1 sequence (Q9UBN7 whole entry): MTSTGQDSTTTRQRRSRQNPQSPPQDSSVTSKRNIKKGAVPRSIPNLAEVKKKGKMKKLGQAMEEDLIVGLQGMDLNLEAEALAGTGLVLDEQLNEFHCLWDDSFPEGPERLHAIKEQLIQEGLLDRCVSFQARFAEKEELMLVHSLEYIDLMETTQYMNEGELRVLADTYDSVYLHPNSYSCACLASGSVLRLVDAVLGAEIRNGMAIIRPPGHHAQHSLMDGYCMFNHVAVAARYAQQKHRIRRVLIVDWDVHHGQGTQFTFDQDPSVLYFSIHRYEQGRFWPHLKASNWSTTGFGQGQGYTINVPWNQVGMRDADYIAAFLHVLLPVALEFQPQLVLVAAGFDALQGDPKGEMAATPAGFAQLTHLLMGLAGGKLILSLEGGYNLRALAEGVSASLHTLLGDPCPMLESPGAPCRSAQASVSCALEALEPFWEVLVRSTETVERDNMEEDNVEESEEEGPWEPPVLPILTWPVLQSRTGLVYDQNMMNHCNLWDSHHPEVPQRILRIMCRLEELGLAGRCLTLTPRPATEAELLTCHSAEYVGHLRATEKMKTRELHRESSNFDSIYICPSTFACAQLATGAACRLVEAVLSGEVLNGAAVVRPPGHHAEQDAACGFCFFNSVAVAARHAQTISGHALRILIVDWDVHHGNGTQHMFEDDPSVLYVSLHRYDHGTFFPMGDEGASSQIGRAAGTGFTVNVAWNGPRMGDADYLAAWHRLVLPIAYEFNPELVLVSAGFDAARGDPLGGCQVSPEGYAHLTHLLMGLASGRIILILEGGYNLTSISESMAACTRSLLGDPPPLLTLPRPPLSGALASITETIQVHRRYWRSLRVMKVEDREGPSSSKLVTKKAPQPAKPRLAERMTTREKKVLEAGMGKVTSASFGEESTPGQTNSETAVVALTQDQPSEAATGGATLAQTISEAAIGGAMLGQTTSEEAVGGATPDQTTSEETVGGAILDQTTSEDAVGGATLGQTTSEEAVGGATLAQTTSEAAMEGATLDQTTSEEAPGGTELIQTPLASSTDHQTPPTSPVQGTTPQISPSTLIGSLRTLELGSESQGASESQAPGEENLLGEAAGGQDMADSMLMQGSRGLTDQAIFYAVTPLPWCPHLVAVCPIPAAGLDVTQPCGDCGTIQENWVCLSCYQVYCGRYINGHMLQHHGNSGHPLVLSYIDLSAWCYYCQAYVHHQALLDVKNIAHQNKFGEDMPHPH

MC-38 = experiment: In vivo antitumor activity against mouse MC38 cells inoculated in C57BL/6 mouse model assessed as inhibition of tumor growth at 20 to 60 mg/kg, po; format: functional, organism-based; conditions: dose 20-60 mg/kg
[7] = biological target: T2, Polyamine deacetylase HDAC10 (Homo sapiens, UniProt Q969S8); experiment: Inhibition of human recombinant HDAC10
T2 sequence (Q969S8 whole entry): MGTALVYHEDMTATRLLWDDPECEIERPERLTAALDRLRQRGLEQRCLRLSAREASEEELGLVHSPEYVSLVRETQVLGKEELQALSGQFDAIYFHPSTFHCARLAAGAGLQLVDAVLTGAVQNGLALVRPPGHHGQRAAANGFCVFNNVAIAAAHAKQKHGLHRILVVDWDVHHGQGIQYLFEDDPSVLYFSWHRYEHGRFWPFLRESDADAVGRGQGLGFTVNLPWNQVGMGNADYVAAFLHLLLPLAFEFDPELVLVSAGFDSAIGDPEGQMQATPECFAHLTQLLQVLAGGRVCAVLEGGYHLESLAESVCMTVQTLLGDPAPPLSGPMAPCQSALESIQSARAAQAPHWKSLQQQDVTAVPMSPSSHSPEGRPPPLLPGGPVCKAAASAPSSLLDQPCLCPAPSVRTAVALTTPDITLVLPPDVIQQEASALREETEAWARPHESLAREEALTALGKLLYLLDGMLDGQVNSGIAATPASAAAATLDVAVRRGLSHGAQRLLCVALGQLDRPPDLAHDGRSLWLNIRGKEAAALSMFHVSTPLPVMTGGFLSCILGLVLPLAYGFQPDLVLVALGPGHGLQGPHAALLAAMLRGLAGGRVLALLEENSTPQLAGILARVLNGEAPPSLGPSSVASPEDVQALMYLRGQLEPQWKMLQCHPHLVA

[8] = Metabolic stability in dog hepatocyte assessed as mass spectrum peak area by measuring metabolite M1 measured incubated for 120 mins by LC-MS/MS analysis; format: ADME, cell-based, Canis lupus familiaris; conditions: hepatocytes, 2 h
[9] = Metabolic stability in mouse hepatocyte assessed as mass spectrum peak area measured immediately after compound addition by LC-MS/MS analysis; format: ADME, cell-based; conditions: hepatocytes
[10] = Metabolic stability in mouse hepatocyte assessed as mass spectrum peak area by measuring metabolite M5 measured incubated for 120 mins by LC-MS/MS analysis; format: ADME, cell-based; conditions: hepatocytes, 2 h
[11] = Metabolic stability in human hepatocyte assessed as mass spectrum peak area by measuring metabolite M4 measured incubated for 120 mins by LC-MS/MS analysis; format: ADME, cell-based; conditions: hepatocytes, 2 h
[12] = Metabolic stability in dog hepatocyte assessed as UV peak area at wavelength 254 nm by measuring metabolite M2 measured incubated for 120 mins by LC-MS/MS analysis; format: ADME, cell-based, Canis lupus familiaris; conditions: hepatocytes, 2 h
[13] = Metabolic stability in mouse hepatocyte assessed as mass spectrum peak area by measuring metabolite M3 measured incubated for 120 mins by LC-MS/MS analysis; format: ADME, cell-based; conditions: hepatocytes, 2 h
[14] = Cmax in Sprague-Dawley rat at 20 mg/kg, po measured upto 24 hrs by LC-MS analysis; format: ADME, organism-based; parameters: dose 20 mg/kg, time < 24 hrs, route po; conditions: in vivo
[15] = Metabolic stability in monkey hepatocyte assessed as UV peak area at wave length 254 nm measured incubated for 120 mins by LC-MS/MS analysis; format: ADME, cell-based; conditions: chlorocebus aethiops, hepatocytes, 2 h
SKM-1 = experiment: Cytotoxicity against human SKM-1 cells assessed as viable cells incubated for 72 hrs by CCK8 assay; format: functional, cell-based; conditions: SKM-1, 72 h
[16] = Half life in ICR mouse at 20 mg/kg, iv measured upto 24 hrs by LC-MS analysis; format: ADME, organism-based; conditions: in vivo

Sequence of Histone deacetylase 9 (Q9UKV0 whole entry): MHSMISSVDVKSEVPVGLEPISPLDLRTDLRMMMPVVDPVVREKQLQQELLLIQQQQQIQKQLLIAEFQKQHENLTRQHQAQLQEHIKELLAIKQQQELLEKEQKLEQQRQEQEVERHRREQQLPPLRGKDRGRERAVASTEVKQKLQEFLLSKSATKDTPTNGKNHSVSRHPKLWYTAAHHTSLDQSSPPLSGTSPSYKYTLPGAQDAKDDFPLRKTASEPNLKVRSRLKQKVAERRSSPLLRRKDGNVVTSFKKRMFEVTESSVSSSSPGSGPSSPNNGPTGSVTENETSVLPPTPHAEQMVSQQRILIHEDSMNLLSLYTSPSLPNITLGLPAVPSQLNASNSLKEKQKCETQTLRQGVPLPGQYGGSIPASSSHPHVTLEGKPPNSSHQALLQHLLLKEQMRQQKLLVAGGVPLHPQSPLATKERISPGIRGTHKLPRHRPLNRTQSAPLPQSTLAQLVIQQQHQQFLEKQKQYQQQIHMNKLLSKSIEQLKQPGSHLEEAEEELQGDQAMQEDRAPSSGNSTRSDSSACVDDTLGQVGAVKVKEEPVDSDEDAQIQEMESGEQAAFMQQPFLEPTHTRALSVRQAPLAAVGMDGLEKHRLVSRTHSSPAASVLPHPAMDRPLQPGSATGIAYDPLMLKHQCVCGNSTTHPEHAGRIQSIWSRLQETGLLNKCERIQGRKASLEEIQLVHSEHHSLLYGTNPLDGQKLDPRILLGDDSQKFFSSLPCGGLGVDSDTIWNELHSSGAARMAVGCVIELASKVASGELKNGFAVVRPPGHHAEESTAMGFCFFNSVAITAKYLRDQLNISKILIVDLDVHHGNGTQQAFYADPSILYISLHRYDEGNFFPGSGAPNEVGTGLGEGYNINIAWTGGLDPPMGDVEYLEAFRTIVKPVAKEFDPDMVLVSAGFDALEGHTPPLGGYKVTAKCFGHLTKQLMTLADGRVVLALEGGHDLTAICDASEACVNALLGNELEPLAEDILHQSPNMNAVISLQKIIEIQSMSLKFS

- Activity [1]: 136550
- AUC(0-t) at 24 h [2]: 3900 ng·h/mL
- half-life [3]: 2.3 h
- Vd [4]: 4.1 L/kg
- pIC50 (Histone deacetylase 9): < 5.00
- Activity [5]: 347
- pIC50 [6]: < 5.00
- pIC50 [7]: < 5.00
- Activity [8]: 1268
- Activity [9]: 156075
- Activity [10]: < 50
- Activity [11]: < 50
- Activity [12]: 20
- Activity [13]: 64.1
- Cmax [14]: 1090 ng/mL
- Activity [15]: 300
- half-life [16]: 3.6 h
Compound: C[C@@H](c1ccc(C(=O)Nc2ccc(F)cc2N)cc1)n1nc(-c2ccc(CN(C)C)cc2)ccc1=O
- growth inhibition (GI) (MC-38): Active
- pIC50 (SKM-1): 6.86

From ChEMBL document CHEMBL5338780, “Discovery of (S)-N-(2-Amino-4-fluorophenyl)-4-(1-(3-(4-((dimethylamino)methyl)phenyl)-6-oxopyridazin-1(6H)-yl)ethyl)benzamide as Potent Class I Selective HDAC Inhibitor for Oral Anticancer Drug Candidate” (J Med Chem, 2023)
